In general, GI50 refers to the concentration that inhibits growth by half. What is called DC50 is the midpoint of the concentration-degradation curve. Read a high DC50 as degradation only at high concentration.

Experimental findings from patent US12441733B2, “Substituted 2,4-dioxotetrahydropyrimidines as intermediates in the synthesis of bruton's tyrosine kinase inhibitors” (Novartis AG, priority 2018, dated 2025) are described below.

Common to all, as to assay type: cell-based
The test system of one experiment is TMD8 cells. Kind of experiment: Resazurin cell viability (proliferation) assay in TMD8 DLBCL cells. The note with it: Homo sapiens, TMD8 cells (BTK dependent), 72 h, 50% growth inhibition vs vehicle, read-out: TMD8 Prol GI50. As to the method: (§1) Compounds of the invention were tested in the following cellular assays. The terms in Table 2 are defined as follows: DC50 refers to the concentration at which 50% maximal degradation was observed; deg Amax is the extent of degradation and the value refers to the % protein remaining at the concentration at which maximum degradation is seen; ProI GI50 refers to the proliferation data and defines the concentration at which 50% growth inhibition was observed compared to the vehicle treated control at the end of the incubation time. TMD8 cells are BTK dependent and OCI-LY3 cells are BTK independent.
(§2) Cell Viability Assay in DLBCL (Diffuse Large B-Cell Lymphoma) Cells:
(§3) The effect of the BTK compounds on cell proliferation was measured by a Resazurin (Sigma, #R7017) based cell viability assay. TMD8 (BTK compound sensitive) and OCI-LY3 (BTK compound insensitive) cells were incubated for 72 h at 37° C. and 5% CO2 with the corresponding compound, Resazurin is a non-toxic, cell-permeable substrate that is virtually non-fluorescent. Upon entering living cells, Resazurin (Sigma, #R7017) is reduced to highly fluorescent Resorufin. The metabolic activity was assessed by measuring the fluorescence signal (ex. 530 nm; em. 600 nm).
(§4) TMD8 and OCI-Ly3 cells were seeded at day 0 in triplicates at a cell density of 1×10^4 cells per 150 μl/well in a 96-well plate (Costar #3904). Additional plates were prepared, in order to assess the basal metabolic activity of both cell lines at the beginning of the experiment. For these reference plates, Resazurin (Sigma, #R7017) was added to a final concentration of 13 μg/ml 3 h post seeding and was incubated for 2 h at 37° C. and 5% CO2. Following incubation, the fluorescent signal intensity of the 96-well plates was measured on a Mithras LB940 multimode plate reader at 530/600 nm (Berthold Technologies, Germanyl).
(§5) In parallel, 3 h post-seeding, test-plates were treated with compound at various concentrations, or with vehicle (DMSO) alone for 3 days. The compound addition to the plates was performed by using a HP D300 digital dispenser (TECAN, Switzerland). The compounds were tested in triplicate, 8-point serial dilution (1:4), with a start concentration of 10 μM for OCI-LY3 and 1 μM for the TMD8 cells, respectively. To assess the relative proliferation of the cells, Resazurin was added to each well directly to the medium to a final concentration of 13 μg/ml. The plates were incubated for 2 h at 37° C. and 5% CO2 to result in a 72 h endpoint. Following incubation, the fluorescent signal intensity of the 96-well plates were measured on a Mithras LB940 multimode plate reader at 530/600 nm (Berthold Technologies, Germanyl). The formation of Resorufin dye directly correlates with the number of metabolically active cells. For each triplicate treatment the mean and standard deviation were calculated and analyzed via curve fitting software to determine the respective compound concentration resulting in 50% growth inhibition (GI50) values. For each compound GI50 values were typically determined from at least 2 entirely independent experiments.
TMD8 cells were acquired through a license agreement with Tokyo Medical and Dental University, Japan. Cells are cultivated in MEM Alpha (BioConcept, #1-23F01-1, lot. LB04262P) supplemented with 10% FCS (HyClone, GE #SH30066.03, lot AB3217603), 2 mM L-Glutamine (BioConcept, #5-10K50-H, lot. LA03467P), 1% Pen/Strep (BioConcept, #4-01F00-H, lot. LB04235P).
Background: The colour change of resazurin is a common sign of viable cells or microbes.

The subject of a further experiment is OCI-LY3 cells. Kind of experiment: Resazurin cell viability (proliferation) assay in OCI-LY3 DLBCL cells. The settings on record: Homo sapiens, OCI-LY3 cells (BTK independent), 72 h, 50% growth inhibition vs vehicle, read-out: OCI-LY3 Prol GI50. On the procedure: as §1, §2, §3, §4, §5
OCI-LY3 cells were acquired through a license agreement with University Health Network, Toronto, Canada. Cells are cultivated in RPM11640 media (Gibco, #61870-010, lot. 1894759), supplemented with 10% FCS (HyClone, GE #SH30066.03, lot AB217603), 2 mM L-Glutamine (BioConcept, #5-10K50-H, lot. LA03467P), 1 mM Sodium Pyruvate (BioConcept, #5-60F00-H, lot. LB10510P), 10 mM HEPES (Gibco, #15630-056, lot. 1854074), 1% Pen/Strep (BioConcept, #4-01F00-H, lot. LB04235P).

The target of a further experiment is T1, BTK-GFP (Homo sapiens, UniProt Q06187+Q96SW2).
T1 construct: expressed in transfected cells; host or cells: HEK293A (Invitrogen R70507), lentiviral transduction with pLenti6-BTK-GFP-Ires-RFP, blasticidin selection
Description: BTK-GFP protein abundance flow cytometry assay in HEK293A cells. The settings on record: HEK293A BTK-GFP-iresRFP cells, 24 h; for DC50: GFP signal by flow cytometry, concentration at which 50% maximal degradation was observed; for BTK deg Amax: % protein remaining at the concentration at which maximum degradation is seen. As to the method:
as §1
BTK-GFP and IKZF3-GFP protein abundance flow cytometry assay in HEK293A cells:
Degradation of BTK or IKZF3 was measured in HEK293A cells (Invitrogen R70507) expressing either BTK-GFP and RFP or IKZF3-GFP and RFP from a stably integrated bicistronic BTK-GFP-iresRFP or IKZF3-GFP-iresRFP construct, respectively. Reduction of the GFP signal measured by flow cytometry served as readout for BTK or IKZF3 degradation after degrader treatment.
i) Cloning of the pLenti6-BTK-GFP-1Res-RFP and IKZF3-GFP-Ires-RFP Sensor Vectors
The bicistronic BTK-GFP-iresRFP construct is based on a pLenti6-DEST vector backbone where GFP was introduced into the unique Xho1 site downstream of the destination cassette (DEST) and RFP was cloned behind an internal ribosomal entry site (Ires).
In detail, the sensor construct was engineered by replacing NanoLuciferase (NLuc) by GFP and FireFly luciferase (FF) by RFP from pLenti6-DEST-NLuc-Ires-FF.
The pLenti6-DEST-NLuc-Ires-FF sensor construct was cloned by replacing eGFP from pLenti6-DEST-ires-eGFP with a synthesized stuffer element (encoding Ires-FF with FF flanked by two Nhe1 restriction sites) using blunt end cloning replacing Ires-eGFP between the two PmII. To enable C-terminal tagging with NanoLuciferase (NLuc), NLuc was amplified from pNL1.1 (Promega #N1001) using linker primers with Xho1 sites for ligating into linearized pLenti6-DEST-Ires-FF using Xho1 digest resulting in the construct pLenti6-DEST-NLuc-Ires-FF.
The pLenti6-DEST-NLuc-Ires-FF served as base vector for cloning pLenti6-DEST-GFP-Ires-RFP using Gibson assembly to replace FF with RFP and NLuc with GFP. In a first round FF was replaced by RFP by amplifying RFP from a template using the following Gibson assembly linker primers (Gibson-Nhe1 RFPfw, […]gctagc[…] (SEQ ID NO: 1); Gibson-Nhe1 RFP-Stoprev, […]ctagc[…] (SEQ ID NO: 2)) to clone into pLenti6-DEST-NLuc-Ires-FF digested with Nhe1 and gel-purified to remove the FF fragment. The resulting pLenti6-DEST-NLuc-Ires-RFP vector served as the template to replace NLuc with GFP by amplifying GFP from a template using following Gibson assembly linker primers (Gibson-Xho1 GFPfw, […]c[…] (SEQ ID NO: 3); Gibson-Xho1 GFP-Stoprev, […] (SEQ ID NO: 4)) to clone into pLenti6-DEST-NLuc-Ires-RFP digested with Xho1 and gel-purified to remove the NLuc fragment. All Gibson assembly reactions were performed with Gibson assembly Master Mix (New England Biolabs NEB E261 IL) according to manufacturer's manual, resulting in the destination vector pLenti6-DEST-GFP-Ires-RFP to allow Gateway cloning. To enable gateway cloning and C-terminal GFP tagging of BTK, the BTK open reading frame (ORF) was first shuttled from a pcDNA-DEST40-BTK vector (Invitrogen library ID INV_20090504v1) into pDONR221 (Invitrogen 12536-017) vector using a gateway BP reaction according to the manufacturer's manual (Invitrogen 11789-013) resulting in the novel construct pENTR221-BTK. For C-terminal tagging the STOP codon was mutated to a leucine performing a mutagenesis reaction with the following primers (pENTR221-BTK Quikchange STOP-Leu fw, gtcatggatgaagaatccTTGaacccagctttcttgtac; pENTR221-BTK Quikchange STOP-Leu REVC, gtacaagaaagctgggttCAAggattcttcatccatgac) using the QuikChange Lightning mutagenesis kit (Agilent Technologies #210518) according to the manufacturer's manual, resulting in pENTR221-BTK (STOP-Leu). […]

T1 sequence (Q06187 whole entry): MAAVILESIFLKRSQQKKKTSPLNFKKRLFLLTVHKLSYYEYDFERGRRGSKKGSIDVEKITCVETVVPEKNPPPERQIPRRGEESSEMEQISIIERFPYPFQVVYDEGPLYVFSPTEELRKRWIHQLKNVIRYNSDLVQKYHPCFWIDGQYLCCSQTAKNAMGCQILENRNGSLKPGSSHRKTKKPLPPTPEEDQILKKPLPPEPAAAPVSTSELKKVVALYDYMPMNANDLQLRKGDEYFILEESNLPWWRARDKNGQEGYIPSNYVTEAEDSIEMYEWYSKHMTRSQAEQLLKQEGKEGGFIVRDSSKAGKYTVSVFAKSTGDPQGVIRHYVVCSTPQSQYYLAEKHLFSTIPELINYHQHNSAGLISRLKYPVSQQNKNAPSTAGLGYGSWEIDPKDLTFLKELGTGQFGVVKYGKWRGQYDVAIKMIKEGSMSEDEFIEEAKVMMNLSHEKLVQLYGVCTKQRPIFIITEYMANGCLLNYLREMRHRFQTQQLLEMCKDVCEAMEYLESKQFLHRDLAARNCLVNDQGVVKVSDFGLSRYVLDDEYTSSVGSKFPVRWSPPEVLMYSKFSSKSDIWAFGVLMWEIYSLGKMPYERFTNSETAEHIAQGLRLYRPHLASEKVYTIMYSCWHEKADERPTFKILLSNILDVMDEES
T1 sequence (Q96SW2 whole entry): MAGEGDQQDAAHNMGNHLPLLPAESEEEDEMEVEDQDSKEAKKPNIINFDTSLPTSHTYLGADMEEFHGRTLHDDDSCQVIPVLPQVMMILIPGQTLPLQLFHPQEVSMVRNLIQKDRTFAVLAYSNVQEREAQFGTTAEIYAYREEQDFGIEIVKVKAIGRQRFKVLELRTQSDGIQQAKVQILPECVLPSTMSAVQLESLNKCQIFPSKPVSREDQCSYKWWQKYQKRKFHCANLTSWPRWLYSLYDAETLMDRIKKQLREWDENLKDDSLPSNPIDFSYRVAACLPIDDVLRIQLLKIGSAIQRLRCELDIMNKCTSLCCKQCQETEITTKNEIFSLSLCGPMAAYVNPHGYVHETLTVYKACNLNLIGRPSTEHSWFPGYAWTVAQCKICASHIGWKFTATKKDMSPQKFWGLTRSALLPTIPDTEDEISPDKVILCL
T1 sequence (Q16531 whole entry partner): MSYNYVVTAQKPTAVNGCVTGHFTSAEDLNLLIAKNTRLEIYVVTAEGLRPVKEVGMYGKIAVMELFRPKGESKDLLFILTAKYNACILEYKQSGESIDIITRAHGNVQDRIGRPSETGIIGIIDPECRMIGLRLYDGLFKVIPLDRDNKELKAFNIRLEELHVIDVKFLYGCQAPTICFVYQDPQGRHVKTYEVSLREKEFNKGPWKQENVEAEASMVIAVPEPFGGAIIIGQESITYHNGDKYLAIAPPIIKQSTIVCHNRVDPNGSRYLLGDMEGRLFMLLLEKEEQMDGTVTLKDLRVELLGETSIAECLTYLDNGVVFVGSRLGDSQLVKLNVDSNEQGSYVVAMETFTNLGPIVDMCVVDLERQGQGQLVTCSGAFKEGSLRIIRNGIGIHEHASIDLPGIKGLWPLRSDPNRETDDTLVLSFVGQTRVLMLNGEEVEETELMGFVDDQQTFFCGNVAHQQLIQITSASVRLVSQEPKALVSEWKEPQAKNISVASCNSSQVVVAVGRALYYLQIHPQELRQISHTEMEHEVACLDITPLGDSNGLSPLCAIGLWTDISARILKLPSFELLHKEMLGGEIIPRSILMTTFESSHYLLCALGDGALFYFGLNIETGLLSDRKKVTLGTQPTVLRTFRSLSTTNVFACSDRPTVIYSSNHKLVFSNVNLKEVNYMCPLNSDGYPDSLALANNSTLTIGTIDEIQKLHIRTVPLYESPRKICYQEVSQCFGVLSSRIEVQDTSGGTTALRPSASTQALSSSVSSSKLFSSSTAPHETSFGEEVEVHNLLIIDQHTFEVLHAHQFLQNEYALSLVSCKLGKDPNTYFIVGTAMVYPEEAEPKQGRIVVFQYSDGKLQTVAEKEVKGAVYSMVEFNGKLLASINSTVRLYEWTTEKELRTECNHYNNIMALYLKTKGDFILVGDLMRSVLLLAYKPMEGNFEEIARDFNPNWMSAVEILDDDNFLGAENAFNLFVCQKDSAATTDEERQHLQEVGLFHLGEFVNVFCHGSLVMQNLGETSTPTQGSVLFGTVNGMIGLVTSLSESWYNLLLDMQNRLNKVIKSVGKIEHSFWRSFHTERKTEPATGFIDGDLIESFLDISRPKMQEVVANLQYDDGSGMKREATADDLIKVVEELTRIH

As for `COc1ccc(C(=O)N2CCC(CCN3CCC(OCc4ccc(-c5cc6c(-c7cc(F)cc(NC(=O)c8ccc(C(C)(C)O)cc8F)c7C)ncnc6[nH]5)cc4)CC3)CC2)cc1N1CCC(=O)NC1=O` [Compound 13, N-(3-(6-(4-(((1-(2-(1-(3-(2,4-Dioxotetrahydropyrimidin-1(2H)-yl)-4-methoxybenzoyl)piperidin-4-yl)ethyl)piperidin-4-yl)oxyl)methyl)phenyl)-7H-pyrrolo[2,3-d]pyrimidin-4-yl)-5-fluoro-2-methylphenyl)-2-fluoro-4-(2-hydroxypropan-2-yl)benzamide], in the experiment with TMD8 cells, the GI50 stood at 0.18 nM. In the experiment with OCI-LY3 cells, the concentration for 50% growth inhibition (GI50) was found to be 3390 nM. On BTK-GFP, it took 0.8 nM to reach half-maximal degradation (DC50) and the “BTK deg Amax” value is 1.8%.
For `COc1ccc(C(=O)N2CCC3(CCN(Cc4ccc(-c5cc6c(-c7cc(F)cc(NC(=O)c8ccc(C(C)(C)O)cc8F)c7C)ncnc6[nH]5)cc4)CC3)C2)cc1N1CCC(=O)NC1=O` [Compound 55, N-(3-(6-(4-((2-(3-(2,4-dioxotetrahydropyrimidin-1(2H)-yl)-4-methoxybenzoyl)-2,8-diazaspiro[4.5]decan-8-yl)methyl)phenyl)-7H-pyrrolo[2,3-d]pyrimidin-4-yl)-5-fluoro-2-methylphenyl)-2-fluoro-4-(2-hydroxypropan-2-yl)benzamide], the concentration for 50% growth inhibition (GI50) with TMD8 cells was determined as 7.01 nM. Besides, the GI50 with OCI-LY3 cells stood at 7940 nM. Moreover, at BTK-GFP, the 50% degradation concentration (DC50) was greater than 124 nM and the “BTK deg Amax” value is reported as 53.8%.
Take `COc1ccc(C(=O)N2CCC3(CCN(CCCc4ccc(-c5cc6c(-c7cc(F)cc(NC(=O)c8ccc(C(C)(C)O)cc8F)c7C)ncnc6[nH]5)cc4)CC3)CC2)cc1N1CCC(=O)NC1=O` [Compound 11, N-(3-(6-(4-(3-(9(3-(2,4-Dioxotetrahydropyrimidin-1(2H)-yl)-4-methoxybenzoyl)-3,9-diazaspiro[5.5]undecan-3-yl)propyl)phenyl)-7H-pyrrolo[2,3-d]pyrimidin-4-yl)-5-fluoro-2-methylphenyl)-2-fluoro-4-(2-hydroxypropan-2-yl)benzamide]: in the experiment on TMD8 cells, the GI50 stood at 0.84 nM. For the same compound, in the experiment on OCI-LY3 cells, the 50% growth inhibitory concentration (GI50) was greater than 10000 nM. At BTK-GFP, it took 5 nM to reach half-maximal degradation (DC50) and the “BTK deg Amax” value is listed as 4.7%.
On the same counts, the results for `COc1ccc(C(=O)N2CCC(CCCN3CCC(Oc4ccc(-c5cc6c(-c7cc(F)cc(NC(=O)c8ccc(C(C)(C)O)cc8F)c7C)ncnc6[nH]5)cc4)CC3)CC2)cc1N1CCC(=O)NC1=O` [Compound 15, N-(3-(6-(4-((1-(3-(1-(3-(2,4-Dioxotetrahydropyrimidin-1(2H)-yl)-4-methoxybenzoyl)piperidin-4-yl)propyl)piperidin-4-yl)oxyl)phenyl)-7H-pyrrolo[2,3-d]pyrimidin-4-yl)-5-fluoro-2-methylphenyl)-2-fluoro-4-(2-hydroxypropan-2-yl)benzamide] are 0.56 nM, 3380 nM, 0.4 nM and 1.6%.
Consider `Cc1ccc(C(=O)N2CCC(OC3CCN(Cc4ccc(-c5cc6c(-c7cc(F)cc(NC(=O)c8ccc(C(C)(C)O)cc8F)c7C)ncnc6[nH]5)cc4)CC3)CC2)cc1N1CCC(=O)NC1=O` [Compound 50, N-(3-(6-(4-((4-((1-(3-(2,4-dioxotetrahydropyrimidin-1(2H)-yl)-4-methylbenzoyl)piperidin-4-yl)oxy)piperidin-1-yl)methyl)phenyl)-7H-pyrrolo[2,3-d]pyrimidin-4-yl)-5-fluoro-2-methylphenyl)-2-fluoro-4-(2-hydroxypropan-2-yl)benzamide], for which the 50% growth inhibitory concentration (GI50) with TMD8 cells was 0.66 nM. For the same compound, the concentration for 50% growth inhibition (GI50) with OCI-LY3 cells came to 7770 nM. For the same compound, at BTK-GFP, the 50% degradation concentration (DC50) came to 1.2 nM and the “BTK deg Amax” value is 4.1%.
On the same counts, the results for `COc1ccc(C(=O)N2CCN(CCNCCCCOc3ccc(-c4cc5c(-c6cc(F)cc(NC(=O)c7ccc(C(C)(C)O)cc7F)c6C)ncnc5[nH]4)cc3)CC2)cc1N1CCC(=O)NC1=O` [Compound 36, N-(3-(6-(4-(4-((2-(4-(3-(2,4-dioxotetrahydropyrimidin-1(2H)-yl)-4-methoxybenzoyl)piperazin-1-yl)ethyl)amino)butoxyl)phenyl)-7H-pyrrolo[2,3-d]pyrimidin-4-yl)-5-fluoro-2-methylphenyl)-2-fluoro-4-(2-hydroxypropan-2-yl)benzamide] are 2.94 nM, greater than 10000 nM, 37 nM and 2.4%.
